Assay results published in ChEMBL document CHEMBL3046782, “Fungicidial Activity of Benthiavalicarb-isopropyl against Phytophthora infestans and Its Controlling Activity against Late Blight Diseases” (J Pestic Sci, 2005).
≈ marks a conversion by molar mass, not a printed value.

Test system: Phytophthora infestans
Experiment: Antifungal activity against phenylamide-resistant Phytophthora infestans 7-1 assessed as inhibition of mycelial growth after 5 to 7 days
Assay type: functional, organism-based, 07-Jan
Conditions: for IC50: Phytophthora infestans, 07-Jan, read-out: I50

Compound	MIC	IC50
COCC(=O)N(c1c(C)cccc1C)C(C)C(=O)OC (centres undefined) [METALAXYL]	>10 µg/mL	> 10 µg/mL
CC(C)OC(=O)N[C@H](C(=O)N[C@H](C)c1nc2ccc(F)cc2s1)C(C)C [BENTHIAVALICARB-ISOPROPYL]	0.1 µg/mL (≈ 0.262 µM)	0.04 µg/mL (≈ 0.105 µM)
